The subject of the experiment is voltage-gated sodium channel (site 1, [3H]Saxitoxin binding). More on the design: species or system rat.

Experimental findings from patent publication US7868028B2 (priority 2002, dated 2011) are described below.

pIC50: −log10 of the molar value.
For % inhibition in this document: test concentration or dose not given here.

As to `Cl.N=c1n(CCN2CCOCC2)c2ccccc2n1CC(O)COc1ccc(Cl)cc1` (racemic) [Compound 35], the % inhibition (usually the percentage by which the read-out fell short of the control) came out at 20%.
`Cl.N=c1n(CCN2CCCCC2)c2ccccc2n1CC(O)c1cccc2ccccc12` (stereo not drawn) [Compound 32]: the “% inhibition” value stood at 20%.
Take `CC(C)(C)c1ccc(Cn2c(=N)n(CC(O)COc3ccccc3)c3ccccc32)cc1.Cl` (stereo not drawn) [Compound 12]: the “% inhibition” value is 59% and the pIC50 – broadly, −log10 of the IC50, conventionally taken in molar units – is 4.47.
For `CC(C)(C)C(O)Cn1c(=N)n(CCN2CCCCC2)c2ccccc21.Cl` (racemic) [Compound 69], the “% inhibition” value was 18%.
On the same count and under the same terms, as for `CCCn1c(=N)n(CC(O)c2ccc(C)cc2)c2ccccc21.Cl` (stereo not drawn) [Compound 60], the entry is “— (key: —: A dash (-) indicates less than 10% inhibition was observed in this test)”.
On the same count and under the same terms, as for `CCCCn1c(=N)n(CC(O)c2ccc(Cl)cc2)c2ccccc21.Cl` (stereo not drawn) [Compound 53], the entry is “— (key: —: A dash (-) indicates less than 10% inhibition was observed in this test)”.
Turning to `Cl.Cn1c(=N)n(CC(O)c2cccc3ccccc23)c2ccccc21` (stereo not drawn) [Compound 58], the “% inhibition” value is on record as “— (key: —: A dash (-) indicates less than 10% inhibition was observed in this test)”.
In the case of `Cl.N=c1n(Cc2ccc(Cl)cc2)c2ccccc2n1CC(O)c1ccco1` (racemic) [Compound 68], the “% inhibition” value was “— (key: —: A dash (-) indicates less than 10% inhibition was observed in this test)”.
For `Br.CCCCCCCCn1c(=N)n(CC(O)COc2ccccc2)c2ccccc21` (stereo not drawn) [Compound 72], the “% inhibition” value is given as 20% and the pIC50 is 4.18.
Turning to `CCCCn1c(=N)n(CC(O)c2ccc(Br)cc2)c2ccccc21.Cl` (racemic) [Compound 62], the “% inhibition” value was “— (key: —: A dash (-) indicates less than 10% inhibition was observed in this test)”.
Still for that read-out and setting: as for `CCCn1c(=N)n(CC(O)c2ccccc2)c2ccccc21.Cl` (stereo not drawn) [Compound 43], the figure is 26%; as for `C=CCn1c(=N)n(CC(O)c2ccc(OCC)cc2)c2ccccc21.Cl` (stereo not drawn) [Compound 49], 32%.
Regarding `COc1ccc(C(O)Cn2c(=N)n(Cc3ccccc3)c3ccccc32)cc1.Cl` (racemic) [Compound 47], the “% inhibition” value was determined as 32%.
`Cl.Cn1c(=N)n(CC(O)C23CC4CC(CC(C4)C2)C3)c2ccccc21` (stereo not drawn) [Compound 23]: the “% inhibition” value is recorded as 15%.
The same measure, in the same setting: with `Cl.Cn1c(=N)n(CC(O)c2cccs2)c2ccccc21` (stereo not drawn) [Compound 34] the figure was 20%; with `CCN(CC)CCn1c(=N)n(CC(O)c2ccc(OC)c(OC)c2)c2ccccc21.Cl` (racemic) [Compound 31], 19%; with `Cl.N=c1n(CCN2CCOCC2)c2ccccc2n1CC(O)COc1ccccc1` (racemic) [Compound 33], 20%.
The same measure, in the same setting: as for `Cl.N=c1n(CCN2CCOCC2)c2ccccc2n1CC(O)c1ccco1` (racemic) [Compound 25], the figure is 16%; as for `CCCn1c(=N)n(CC(O)COc2ccccc2)c2ccccc21.Cl` (stereo not drawn) [Compound 20], 12%.
The same measure, in the same setting: with `C=CCn1c(=N)n(CC(O)c2ccc(Cl)cc2)c2ccccc21.Cl` (racemic) [Compound 64] the entry was “— (key: —: A dash (-) indicates less than 10% inhibition was observed in this test)”; with `Cc1ccc(Cn2c(=N)n(CC(O)COc3ccc(Cl)cc3)c3ccccc32)cc1.Cl` (stereo not drawn) [Compound 52], 37%.
For the molecule `Cl.Cn1c(=N)n(CC(O)c2ccccc2)c2ccccc21` (stereo not drawn) [Compound 65], the “% inhibition” value is on record as “— (key: —: A dash (-) indicates less than 10% inhibition was observed in this test)”.
Still for that read-out and setting: with `C=CCn1c(=N)n(CC(O)c2ccc(Br)cc2)c2ccccc21.Cl` (racemic) [Compound 39] the figure was 24%; with `Cl.N=c1n(Cc2ccc(Cl)cc2)c2ccccc2n1CC(O)COc1ccc(Cl)cc1` (stereo not drawn) [Compound 15], 11%.
Still for that read-out and setting: as for `C=CCn1c(=N)n(CC(O)C(C)(C)C)c2ccccc21.Cl` (racemic) [Compound 36], the figure is 22%.
On to `Br.N=c1n(CCN(Cc2ccccc2)Cc2ccccc2)c2ccccc2n1CC(O)COc1ccccc1` (racemic) [Compound 76], for which the “% inhibition” value is given as “— (key: —: A dash (-) indicates less than 10% inhibition was observed in this test)” and the pIC50 is 4.00.
In the case of `CC(C)(C)C(O)Cn1c(=N)n(Cc2ccc(Cl)cc2)c2ccccc21.Cl` (racemic) [Compound 59], the “% inhibition” value is “— (key: —: A dash (-) indicates less than 10% inhibition was observed in this test)”.
`CN(C)CCn1c(=N)n(CC(O)c2ccc(Cl)c(Cl)c2)c2ccccc21.Cl` (racemic) [Compound 51]: the “% inhibition” value was 36%.
On the same count and under the same terms, as for `C=CCn1c(=N)n(CC(O)COc2ccc(Cl)cc2)c2ccccc21.Cl` (racemic) [Compound 46], the figure is 29%; as for `CCn1c(=N)n(CC(O)c2cccs2)c2ccccc21.Cl` (stereo not drawn) [Compound 17], 11%; as for `CCCn1c(=N)n(CC(C)O)c2ccccc21.Cl` (stereo not drawn) [Compound 61], “— (key: —: A dash (-) indicates less than 10% inhibition was observed in this test)”.
With `CCn1c(=N)n(CC(O)COc2ccccc2)c2ccccc21.Cl` (stereo not drawn) [Compound 19], the “% inhibition” value is 11%.
`CCN(CC)CCn1c(=N)n(CC(O)c2ccc(C)cc2)c2ccccc21.Cl` (stereo not drawn) [Compound 28]: the “% inhibition” value is recorded as 17%.
Same read-out and setting: as for `CCn1c(=N)n(CC(O)COc2ccc(Cl)cc2)c2ccccc21.Cl` (racemic) [Compound 21], the figure is 13%; as for `CC(O)Cn1c(=N)n(Cc2ccccc2)c2ccccc21.Cl` (stereo not drawn) [Compound 24], 16%.
`Cl.Cn1c(=N)n(CC(O)COc2ccc(Cl)cc2)c2ccccc21` (racemic) [Compound 57]: the “% inhibition” value is “— (key: —: A dash (-) indicates less than 10% inhibition was observed in this test)”.
As to `CCN(CC)CCn1c(=N)n(CC(O)c2ccc(Cl)c(Cl)c2)c2ccccc21.Cl` (stereo not drawn) [Compound 42], the “% inhibition” value is listed as 25%.
The same measure, in the same setting: as for `Cl.N=c1n(Cc2ccccc2)c2ccccc2n1CC(O)c1ccco1` (stereo not drawn) [Compound 67], the entry is “— (key: —: A dash (-) indicates less than 10% inhibition was observed in this test)”; as for `C=CCn1c(=N)n(CC(O)c2ccc(C)cc2)c2ccccc21.Cl` (racemic) [Compound 50], 33%.
As for `Cl.Cn1c(=N)n(CC(O)c2ccc(Cl)c(Cl)c2)c2ccccc21` (stereo not drawn) [Compound 13], the “% inhibition” value amounted to 46% and the pIC50 is 3.63.
In the case of `Cl.N=c1n(CCN2CCCCC2)c2ccccc2n1CC(O)c1ccccc1` (stereo not drawn) [Compound 30], the “% inhibition” value is 18%.
With `CCN(CC)CCn1c(=N)n(CC(O)COc2ccc(Cl)cc2)c2ccccc21.Cl` (racemic) [Compound 56], the “% inhibition” value was “— (key: —: A dash (-) indicates less than 10% inhibition was observed in this test)”.
On the same count and under the same terms, as for `Cl.N=c1n(CCN2CCCCC2)c2ccccc2n1CC(O)COc1ccc(Cl)cc1` (racemic) [Compound 40], the figure is 24%; as for `Cl.N=c1n(Cc2ccccc2)c2ccccc2n1CC(O)c1ccc(Br)cc1` (stereo not drawn) [Compound 63], “— (key: —: A dash (-) indicates less than 10% inhibition was observed in this test)”; as for `Cl.N=c1n(CCN2CCOCC2)c2ccccc2n1CC(O)c1cccs1` (stereo not drawn) [Compound 16], 17%.
Regarding `C=CCn1c(=N)n(CC(O)COc2ccccc2)c2ccccc21.Cl` (stereo not drawn) [Compound 41], the “% inhibition” value worked out at 25%.
The same measure, in the same setting: as for `CCCCn1c(=N)n(CC(O)c2ccccc2)c2ccccc21.Cl` (stereo not drawn) [Compound 18], the figure is 11%; as for `COc1ccc(C(O)Cn2c(=N)n(CCN3CCCCC3)c3ccccc32)cc1.Cl` (stereo not drawn) [Compound 45], 28%.
Consider `CC(C)(C)C(O)Cn1c(=N)n(Cc2ccccc2)c2ccccc21.Cl` (stereo not drawn) [Compound 26], for which the “% inhibition” value amounted to 17%.
On to `Cl.Cn1c(=N)n(CC(O)c2ccc(Cl)cc2)c2ccccc21` (stereo not drawn) [Compound 54], for which the “% inhibition” value is listed as “— (key: —: A dash (-) indicates less than 10% inhibition was observed in this test)”.
Turning to `CCOc1ccc(C(O)Cn2c(=N)n(CCN3CCCCC3)c3ccccc32)cc1.Cl` (racemic) [Compound 37], the “% inhibition” value is 22%.
On to `Cl.N=c1n(CCN2CCCCC2)c2ccccc2n1CC(O)c1cccs1` (stereo not drawn) [Compound 38], for which the “% inhibition” value turned out to be 22%.
Still for that read-out and setting: with `CCN(CC)CCn1c(=N)n(CC(O)COc2ccccc2)c2ccccc21.Cl` (racemic) [Compound 55] the entry was “— (key: —: A dash (-) indicates less than 10% inhibition was observed in this test)”.
With `Cl.N=c1n(Cc2ccc(Cl)cc2)c2ccccc2n1CC(O)COc1ccccc1` (stereo not drawn) [Compound 14], the “% inhibition” value is listed as 16%.
On to `CCCn1c(=N)n(CC(O)c2ccc(Cl)cc2)c2ccccc21.Cl` (racemic) [Compound 48], for which the “% inhibition” value was determined as 32%.
Same read-out and setting: with `COc1ccc(C(O)Cn2c(=N)n(C)c3ccccc32)cc1.Cl` (racemic) [Compound 27] the figure was 17%; with `CC(O)Cn1c(=N)n(C)c2ccccc21.Cl` (stereo not drawn) [Compound 66], “— (key: —: A dash (-) indicates less than 10% inhibition was observed in this test)”.
In the case of `Br.N=c1n(Cc2ccccc2)c2ccccc2n1CC(O)Cc1ccccc1` (racemic) [Compound 77], the “% inhibition” value was 27% and the pIC50 was 4.09.
On to `Br.CCCCCCCCCCCn1c(=N)n(CC(O)COc2ccccc2)c2ccccc21` (racemic) [Compound 74], for which the “% inhibition” value amounted to 33% and the pIC50 is 3.93.
For the molecule `CCCn1c(=N)n(CC(O)COc2ccc(Cl)cc2)c2ccccc21.Cl` (stereo not drawn) [Compound 29], the “% inhibition” value was determined as 18%.
In the case of `Br.N=c1n(Cc2cccc3ccccc23)c2ccccc2n1CC(O)COc1ccccc1` (racemic) [Compound 73], the “% inhibition” value is “— (key: —: A dash (-) indicates less than 10% inhibition was observed in this test)” and the pIC50 was 3.97.
In the case of `Cl.Cn1c(=N)n(CC(O)COc2ccccc2)c2ccccc21` (racemic) [Compound 44], the “% inhibition” value turned out to be 27%.
